Measured values: patent publication US8420636B2, “Pyrrolidinyl-alkyl-amide derivatives, their preparation, and their therapeutic application as CCR3 receptor ligands” (Sanofi, priority 2008, dated 2013)
Read-outs that look alike come from different tables or passages of the source.

Tests used:
hCCR3 = target: T1, hCCR3 (Homo sapiens, UniProt P51677); test: Ca2+ mobilization in hCCR3-RBL and hCCR3 K562 cells (test B); format: cell-based
T1 construct: expressed in transfected cells; host or cells: K562 and RBL2H3 cells
T1 sequence (P51677 1-355): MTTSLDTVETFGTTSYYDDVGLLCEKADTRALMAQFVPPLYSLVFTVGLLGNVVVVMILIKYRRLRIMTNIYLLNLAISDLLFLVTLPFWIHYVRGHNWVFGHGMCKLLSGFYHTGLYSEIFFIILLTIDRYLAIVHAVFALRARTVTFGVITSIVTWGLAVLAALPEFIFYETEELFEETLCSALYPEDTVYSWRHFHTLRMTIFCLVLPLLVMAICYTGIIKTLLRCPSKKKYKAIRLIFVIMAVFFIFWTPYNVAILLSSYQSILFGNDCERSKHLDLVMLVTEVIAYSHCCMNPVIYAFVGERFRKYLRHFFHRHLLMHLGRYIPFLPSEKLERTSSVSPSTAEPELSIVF
Experimental: B.) Investigation of Ca^2+ Mobilization in hCCR3-RBL and hCCR3 K562 Cells
HCCR3-K562 and hCCE3-RBL2H3 cells in 40,000 cells/well density (number of cells in one well of the microplate) are cultured for 24 hours. The cells are washed and loaded with calcium indicator dye (Calcium Plus assay Kit, Molecular Devices). The cells are incubated in the presence of the dye for 60 minutes while loading takes place. The dye is a fluorescent calcium indicator, which sensitively indicates the intracellular calcium concentration. The intracellular calcium concentration is in direct ratio with the fluorescent signal of the sample. The experiments are performed in a BMG NOVOSTAR apparatus, at […].
The selective agonists used in the experiments are:
In the experiments an agonist concentration is used which causes a 75% calcium signal compared to the maximum attainable signal.
Antagonists are added 15 minutes before the agonist treatment.
The change of the fluorescent signal is monitored for 30 seconds, during that period the process takes place.
The intensity of the maximum calcium signal following the addition of the agonist is compared with the calcium signal obtained after the addition of the same agonist, but in the presence of the inhibitor.
The activity of the compounds is characterized with the IC50 values.

[1] = test B, inhibition of agonist-induced calcium signal in hCCR3-K562 / hCCR3-RBL2H3 cells, antagonist added 15 minutes before agonist, read-out: IC50

Compound | melting point | IC50 (hCCR3; [1]) | IC50 (hCCR3)
O=C(CCc1nc2nc(N3CCCC3)ccc2s1)NCCC[N+]1([O-])CCCC1c1ccc(Cl)c(Cl)c1 (centres unmarked) | 185 to 188 °C |  | 
CCNC(=O)N[N+]1(CCCNC(=O)CCc2nc3nc(N4CC(C)OC(C)C4)ccc3s2)CCCC1c1ccc(Cl)c(Cl)c1.Cl (centres unmarked) | 115 to 118 °C |  | 
Cc1ccc2nc(CCC(=O)NCCCN3CCCC3c3ccc(Cl)c(Cl)c3)sc2n1 (centres unmarked) | 125 to 130 °C |  | 
Cc1ccc2nc(CCC(=O)NCCCN3CCCC3c3ccc(Cl)c(Cl)c3)sc2c1 (centres unmarked) | 76 to 79 °C |  | 
1-(Acetylamino)-2-(3,4-dichlorophenyl)-1-(3-{[3-(5-piperidin-1-yl[1,3]thiazolo[4,5-b]pyridin-2-yl)propanoyl]amino}propyl)pyrrolidinium hydrochloride [Example 23] |  | 13 nM | 
1-Amino-2-(3,4-dichlorophenyl)-1-(3-{[3-(5-pyrrolidin-1-yl[1,3]thiazolo[4,5-b]pyridin-2-yl)propanoyl]amino}propyl)pyrrolidinium tosylate [Example 14] |  | 1 nM | 
CNc1ccc2nc(CCC(=O)NCCCN3CCCC3c3ccc(Cl)c(Cl)c3)sc2n1 (centres unmarked) [Example 2, N-{3-[2-(3,4-dichlorophenyl)pyrrolidin-1-yl]propyl}-3-(5-(methylamino)[1,3]thiazolo[5,4-b]pyridin-2-yl)propionamide] | 119 to 121 °C |  | 18 nM
O=C(CCc1nc2ccc(N3CCCC3)nc2s1)NCCCN1CCCC1c1ccc(Cl)c(Cl)c1 (centres unmarked) [Example 3, N-{3-[2-(3,4-dichlorophenyl)pyrrolidin-1-yl]propyl}-3-(5-pyrrolidin-1-yl[1,3]thiazolo[5,4-b]pyridin-2-yl)propionamide] | 137 to 138 °C |  | 5 nM
O=C(CCc1nc2ccc(N3CCCCC3)nc2s1)NCCCN1CCCC1c1ccc(Cl)c(Cl)c1 (centres unmarked) [Example 4, N-{3-[2-(3,4-dichlorophenyl)pyrrolidin-1-yl]propyl}-3-(5-piperidin-1-yl[1,3]thiazolo[5,4-b]pyridin-2-yl)propionamide] | 93 to 95 °C |  | 3.4 nM
O=C(CCc1nc2ccc(N3CCOCC3)nc2s1)NCCCN1CCCC1c1ccc(Cl)c(Cl)c1 (centres unmarked) [Example 5, N-{3-[2-(3,4-dichlorophenyl)pyrrolidin-1-yl]propyl}-3-(5-morpholin-4-yl[1,3]thiazolo[5,4-b]pyridin-2-yl)propionamide] | 111 to 112 °C |  | 0.9 nM
O=C(CCc1nc2ncc(N3CCCCC3)nc2s1)NCCCN1CCCC1c1ccc(Cl)c(Cl)c1 (centres unmarked) [Example 9] | 105 °C |  | 3.9 nM
CC1CN(c2ccc3nc(CCC(=O)NCCCN4CCCC4c4ccc(Cl)c(Cl)c4)sc3n2)CC(C)O1 (centres unmarked) [Example 11, N-{3-[2-(3,4-dichlorophenyl)pyrrolidin-1-yl]propyl}-3-(5-(2,6-dimethylmorpholin-4-yl)[1,3]thiazolo[5,4-b]pyridin-2-yl)propionamide] |  |  | 1.6 nM
O=C(CCc1nc2ccc(N3CCCCC3)nc2s1)NCCC[N+]1([O-])CCCC1c1ccc(Cl)c(Cl)c1 (centres unmarked) [Example 20] | 185 to 187 °C |  | 13 nM
N-{3-[2-(3,4-dichlorophenyl)-1-oxidopyrrolidin-1-yl]propyl}-3-(5-morpholin-4-yl[1,3]thiazolo[4,5-b]pyridin-2-yl)propionamide [Example 21] |  | 82.5 nM | 
